From ChEMBL document CHEMBL1151011, “Heterocyclic analogs of the benzolactam nucleus of the non-peptidic growth hormone secretagogue L-692,429” (1995)
Calls of active or inactive are those of the source. No cut-off for these calls is given here.

organism: Rattus norvegicus; assay: Effective dose of compound required for in vitro effect on growth hormone release was measured in rat pituitary cell assay; IA means compound is inactive at 20 ug/mL concentration; assay type: functional; details: Pituitary gland cell

| SMILES | ED50 |
| --- | --- |
| CC1=NC(NC(=O)CC(C)(C)N)C(=O)N(Cc2ccc(-c3ccccc3-c3nn[nH]n3)cc2)c2ccccc21 (configuration not stated) | inactive |

organism: Rattus norvegicus; assay: Effective dose of compound required for in vitro effect on growth hormone release was measured in rat pituitary cell assay; assay type: functional, Pituitary gland cell; details: Rattus norvegicus, Pituitary gland cell; read-out: ED50 (the source's name)

| SMILES | EC50 [nM] |
| --- | --- |
| CC(C)(N)CC(=O)N[C@@H]1CSc2ccccc2N(Cc2ccc(-c3ccccc3-c3nn[nH]n3)cc2)C1=O | 100 |
| CC(C)(N)CC(=O)N[C@@H]1CCc2ccccc2N(Cc2ccc(-c3ccccc3-c3nn[nH]n3)cc2)C1=O | 60 |
| CC(C)(N)CC(=O)NC1CCc2ccccc2N(Cc2ccc(-c3ccccc3-c3nn[nH]n3)cc2)C1=O [L-158432] | 120 |
| CC(C)(N)CC(=O)N[C@@H]1COc2ccccc2N(Cc2ccc(-c3ccccc3-c3nn[nH]n3)cc2)C1=O | 120 |
| CC(C)(N)CC(=O)NC1Cc2ccccc2N(Cc2ccc(-c3ccccc3-c3nn[nH]n3)cc2)C1=O (configuration not stated) | 2000 |
| CC(C)(N)CC(=O)N[C@@H]1CC(=O)c2ccccc2N(Cc2ccc(-c3ccccc3-c3nn[nH]n3)cc2)C1=O | 2700 |
| CC(C)(N)CC(=O)NC1Sc2ccccc2N(Cc2ccc(-c3ccccc3-c3nn[nH]n3)cc2)C1=O (configuration not stated) | 500 |
| CC(C)(N)CC(=O)N[C@@H]1CS(=O)(=O)c2ccccc2N(Cc2ccc(-c3ccccc3-c3nn[nH]n3)cc2)C1=O | 1000 |
| CC(C)(N)CC(=O)N[C@@H]1CC(O)c2ccccc2N(Cc2ccc(-c3ccccc3-c3nn[nH]n3)cc2)C1=O (some centres not stated) | 4000 |
| CC(C)(N)CC(=O)N[C@@H]1C[S+]([O-])c2ccccc2N(Cc2ccc(-c3ccccc3-c3nn[nH]n3)cc2)C1=O (stereo in doubt) | 3000 |

same assay, conditions: read-out: ED50 (the source's name)

| SMILES | EC50 [nM] |
| --- | --- |
| CC(C)(N)CC(=O)N[C@@H]1C[S+]([O-])c2ccccc2N(Cc2ccc(-c3ccccc3-c3nn[nH]n3)cc2)C1=O (stereo in doubt; 22a) | 4000 |
